Results as given in US6486326B2, “iso-CBI and iso-CI analogs of CC-1065 duocarmycins” (The Scripps Research Institute, priority 1997, dated 2002).

Tested on: w794 DNA (SV40 DNA segment, 144 bp)
Experiment: DNA alkylation selectivity and efficiency, thermally-induced strand cleavage of w794 DNA
Assay type: biochemical
Procedure: FIG. 5 illustrates thermally-induced strand cleavage of w794 DNA (SV40 DNA segment, 144 bp, nucleotide nos. 138-5238); DNA-agent incubation for 24 hours at 25° C., removal of unbound agent and 30 minutes of thermolysis (100° C.), followed by denaturing 8% PAGE and autoradiography, lane 1, control DNA; lanes 2-5, Sanger G, C, A, and T sequencing reactions; lanes 6-7 (−)-iso-CBI-TMI (1×10^−3 and 1×10^−4 M); lanes 8-9, (+)-CBI-TMI (1×10^−5 and 1×10^−4 M); lanes 10-11, (+)-duocarmycin SA (1×10^−5 and 1×10^−6).
FIG. 7 illustrates thermally-induced strand cleavage of w794 DNA (SV40 DNA segment, 144 bp, nucleotide nos. 138-5238); DNA-agent incubation for 24 h at 25° C., removal of unbound agent and 30 min of thermolysis (100° C.), followed by denaturing 8% PAGE and autoradiography; lane 1, control DNA; lanes 2-5, Sanger G, C, A, and T sequencing reactions; lanes 6-8 (+)-duocarmycin SA (1×10^−4 to 1×10^−6 M); lanes9-11, seco-iso-CI-TMI (1×10^−3 to 1×10^−5 M).
DNA Alkylation Selectivity and Efficiency: The DNA alkylation properties of the agents were examined within w794 and w836 duplex DNA for which comparative results are available for related agents. (Boger, D. L., et al., J. Am. Chem. Soc. 1994, 116, 11335; Boger, D. L., et al., J. Am. Chem. Soc. 1994, 116, 6461; and Boger, D. L., et al., J. Am. Chem. Soc. 1995, 117, 11647) The alkylation site identification and the assessment of the relative selectivity among the available sites were obtained by thermally-induced strand cleavage of the singly 5′ end-labeled duplex DNA after exposure to the agents. Following treatment of the end-labeled duplex DNA with a range of agent concentrations and temperatures in the dark, the unbound agent was removed by EtOH precipitation of the DNA Redissolution of the DNA in aqueous buffer, thermolysis (100° C., 30 min) to induce strand cleavage at the sites of DNA alkylation, denaturing high-resolution polyacrylamide gel electrophoresis (PAGE) adjacent to Sanger dideoxynucleotide sequencing standards, and autoradiography led to identification of the DNA cleavage and alkylation sites. The full details of this procedure have been disclosed elsewhere. (Boger, D. L., et al., Tetrahedron 1991, 47, 2661.)
DNA Alkylation Studies: Selectivity and Efficiency: Eppendorf tubes containing singly ^32p 5′-end-labeled double-stranded DNA (9 μL) (Boger, D. L., et al., Tetrahedron 1991, 47, 2661.) in TE buffer (10 mM Tris, 1 mM EDTA, pH 7.5) were treated with the agents in DMSO (1 μL, at the specified concentrations). The solutions were mixed by vortexing and brief centrifugation and subsequently incubated at 4° C., 25° C. or 37° C. for 24-72 h. […]

SMILES: COc1cc2cc(C(=O)N3CC4CC45C(=O)c4ccccc4C=C35)[nH]c2c(OC)c1OC (single isomer, unassigned; (-)) [(−)-iso-CBI-TMI, 2-[(5,6,7-Trimethoxyindol-2-yl)carbonyl]-1,2,9,9a-tetrahydrocyclopropa[c]benzo[f]indol-8-one]
- DNA alkylation sequence selectivity compared with (+)-duocarmycin SA: same sequence selectivity
- DNA alkylation efficiency, less efficient than (+)-CBI-TMI and (+)-duocarmycin SA (24 h, 25° C.): 50-100 ×
